Here are results for 11 compounds from patent publication US20100233701A1, “Use of non-clonal chromosomal aberrations for cancer research and clinical diagnosis” (priority 2008, published 2010).

Peptide text beside a SMILES is read from it. * marks the point of attachment. Cbz = O=C(OCc1ccccc1)*; CH2F = FC*

In one assay the test system is MDA-MB-231. The assay can be described thus: SKY analysis of NCCAs after proteasome inhibitor treatment. It is filed as cell-based. As to conditions: immediately following treatment. From the text:
(§1) Following probe denaturation, hybridization and SKY detection, randomly selected mitotic figures were photographed and analyzed by SKY imaging software. Fifty to hundred SKY images were captured for each cell population to identify commonly shared karyotype features and to reveal the karyotypic diversity of these various cell populations. NCCAs were scored by identifying chromosomal numbers, chromosome translocations/large deletions or other types of abnormality detected within a given mitotic cell. There are two steps needed to score frequencies of NCCAs and CCAs. First, a 4% cutoff line is used to identify any specific recurrent karyotypes or CCAs. The frequency of a CCA is determined by calculating the number of cells displaying the same CCA divided by the total cells examined (50-100). Non-clonal karyotypes (NCCAs) are classified as having a frequency lower than 4%. The total frequencies of NCCAs of a given cell population is then calculated by using all cells displaying NCCAs divided by the total cells examined.
(§2) 5. A comparison of specific and non-specific drugs that target the same pathway: In order to compare directly the effects of challenging the same molecular pathway with specific or nonspecific drug treatments with regard to genome system stability and evolution, the protein degradation pathway was chosen. Two proteasome inhibitors, Bortezomib (also named Velcade or PS-341) and MG132 were used. […] Compared to 132, Bortezomib is more specific. Two breast cancer cell lines, MDA-MB-231 and BT549, were used for this comparison. […] After a few weeks culture, there seemed to be no drastic changes in terms of the formation of new karyotypes.

In another assay the test system is BT549. Described as above. The format is cell-based. As to conditions: following treatment.
Text: as §1, §2

A further assay deals with ER stress pathways. Briefly: ER stress agents, western blot and SKY analysis of NCCAs. The format is cell-based. As to conditions: for NCCA levels: SKY analysis following a short period of culture; for ER stress pathway activation: western blot analysis following the drug treatment. From the text:
The inventors herein then determined to use a more defined stress condition to validate the link between the stress and the genome evolution. Since the endoplasmic reticulum (ER) has an important role in sensing cellular stress, and the ER stress is well studied, the inventors hypothesize that the defined ER stress will also generate elevated NCCAs leading to the formation of new karyotypes. Specific agents were used to target specific pathways of ER stress including tharpsigargin, tunicamycin and DTT. Tunicamycin interferes with glycalation and results in induction of ER stress. Tharpsigargin inhibits the endoplasmic reticulum calcium ATPase, and results in the release of calcium from the ER, and DTT induces reductive stress through its activity in breaking disulfide bonds which leads to induction of the unfolded protein response. […] As illustrated, the specific ER stress pathways were indeed active in three treatments.

Assay [1] concerns cisplatin resistance cell line. Briefly: SKY analysis of NCCAs after Bcl-2 inhibitor treatment. It is filed as cell-based.
Text: as §1
4. […] To examine this issue, TW-37, a small-molecule inhibitor drug that specifically binds to and inhibits Bcl-2 was used in a cisplatin resistance cell line that was previously tested. Under treatment conditions resulting in 50% cell death, surviving cells of two cell lines were followed with SKY analysis. […]

Assay [2] concerns HCT116 p53−/− cells. The assay can be described thus: Mitotic catastrophe model, aphidicolin, scored for chromosome fragmentation. The conditions noted are these: for mitotic fraction: conventional cytogenetic analysis. It is filed as cell-based. The protocol:
(§3) Induction of mitotic catastrophe. Mitotic catastrophe was induced as herein described. HCT116 14-3-3−/− cells were treated for up to 72 h with 2 μg/mL doxorubicin and HCT116 p53−/−. The cells were treated with 1 μg/mL aphidicolin for up to 96 h and were each harvested every 24 h. Cytogenetic preparations and cytospin preparations were made allowing for chromosomal and morphologic analysis.
(§4) The present mitotic cell death process differs from previously described mitotic catastrophe. Mitotic catastrophe has been loosely defined as cell death that results from aberrant mitoses. […] Not only do the definitions of mitotic catastrophe differ but there is also a lack of morphologic characterization of chromosomes from cells undergoing mitotic catastrophe. […] Cells were induced to undergo mitotic catastrophe according to published reports. Half of the cells were prepared using reported protocols and half were prepared according to standard cytogenetic procedure to score chromosome fragmentation frequency.

Assay [3] relates to HCT116 p53−/− cells. The conditions noted are these: 72 h, reported; cited from earlier work.
For assay [4], the system named is OV433 and TOV112D cell lines. Briefly: Selection of cisplatin resistant clones, karyotypes by SKY. The format is cell-based. The conditions noted are these: 6-9 months of selection by gradually increased concentrations. The protocol:
3. Less specific targeted drugs can cause karyotypic changes: A well accepted mechanism of drug resistance acquisition is a specific gene mutation linked to a defined molecular pathway such as the cell death pathway, multiple drug resistance pathway or chromosomal machinery that is responsible for genome integrity. In order to test such a mechanism in the context of genome system evolution, well characterized ovarian cancer cell lines were treated with cisplatin, which is a drug commonly used to treat various types of cancers. The mechanism of this drug is thought to be binding and cross-linking of DNA by platinum complexes, which ultimately triggers apoptosis. The mechanisms of cisplatin resistance have been proposed to include changes in cellular uptake, increased detoxification of the drug, inhibition of apoptosis and increased DNA repair.
The karyotypes were examined by SKY and some key pathways possibly related to the acquisition of drug resistance in the clones were analyzed by western blots.

The test system of another assay is cell population. The assay can be described thus: High stress drug treatment, NCCAs and karyotypes. The format is cell-based. As to conditions: immediately after treatment of a high dosage. From the text:
First, the same cell line was used with both “high” and “low” levels of stress applied respectively. High stress was applied through chemo-therapy drug treatments (doxorubicin) (Dox) while low stress was generated by altering culture conditions. […] This was illustrated by the drastically altered karyotypes in every cell examined, which persisted until certain karyotypes became dominant (completing the transition from high levels of NCCAs to specific CCAs) following at least 6 weeks of culture in a drug free medium.

The subject of a further assay is HCT116 14-3-3−/− cells. Briefly: Mitotic catastrophe model, doxorubicin, scored for chromosome fragmentation. It is filed as cell-based. As to conditions: low dose of doxorubicin. The protocol:
as §3, §4

For a further assay, the system named is mitotic cells. Briefly: Induction of chromosome fragmentation (fragmentation index, cytogenetic scoring). It is filed as cell-based. As to the method: Induction of chromosome fragmentation. After 3 to 8 h treatment of colcemid, mitotic cells were gently shaken off and resuspended in culture medium containing colcemid. Cells were then treated with doxorubicin or methotrexate at 1 μg/mL for various times. Cytogenetic examination. Cells were harvested and cytogenetic slides were prepared using standard protocols. Slides were stained by Giemsa for scoring nuclear structures or stored at −20° C. for further characterization including spectral karyotyping (SKY) and antibody staining. The fragmentation index was determined by dividing the number of cells displaying chromosome fragmentation by the total number of mitotic cells, including cells undergoing chromosome fragmentation.

A further assay concerns HCT116 cells. The assay can be described thus: Caspase inhibition during induced chromosome fragmentation. It is filed as cell-based. As to conditions: pretreatment with z-vad-fmk, then colcemid and doxorubicin, 6 and 12 h. The protocol: Cytogenetic examination. Cells were harvested and cytogenetic slides were prepared using standard protocols. Slides were stained by Giemsa for scoring nuclear structures or stored at −20° C. for further characterization including spectral karyotyping (SKY) and antibody staining. The fragmentation index was determined by dividing the number of cells displaying chromosome fragmentation by the total number of mitotic cells, including cells undergoing chromosome fragmentation.
Caspase inhibition. Caspase activity was inhibited by treatment of HCT116 cells for 12 h with […] z-vad-fmk followed induction of chromosome fragmentation (by concurrent treatment with colcemid and 1 μg/mL doxorubicin) for 6 or 12 h in the presence of or after removal of z-vad-fmk. Following treatment, cytogenetic slides were made and scored.

A further assay deals with T1, caspase-3 (Homo sapiens, UniProt P42574).
T1 construct: endogenous in cells; host or cells: HCT116
T1 sequence (P42574 29-175 limits assumed): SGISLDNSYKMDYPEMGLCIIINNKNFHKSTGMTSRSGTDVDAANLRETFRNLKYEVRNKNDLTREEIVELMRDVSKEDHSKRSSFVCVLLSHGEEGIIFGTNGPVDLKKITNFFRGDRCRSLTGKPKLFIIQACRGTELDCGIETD
T1 sequence (P42574 176-277 limits assumed): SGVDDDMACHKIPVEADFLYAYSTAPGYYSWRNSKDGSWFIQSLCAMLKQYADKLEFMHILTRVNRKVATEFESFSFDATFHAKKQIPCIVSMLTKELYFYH
Briefly: Caspase-3 colorimetric activity assay. It is filed as cell-based. As to conditions: 20 μmol/L, cells treated with colcemid and doxorubicin. The protocol: Caspase-3 activity. Caspase-3 activity was measured using the caspase-3 colorimetric assay kit from R&D Systems as herein described. HCT116 cells were treated for 8 h with colcemid with and without z-vad-fmk. Mitotic cells were then shaken off and treated with doxorubicin for an additional 6 h and 12 h.

Consider `CC(C)C[C@H](NC(=O)[C@H](Cc1ccccc1)NC(=O)c1cnccn1)B(O)O` [Bortezomib], for which, in the assay on MDA-MB-231, the NCCAs result is given as “showed an increase in NCCAs”. Also, in the assay with BT549, the NCCA frequencies result is reported as “failed to generate increased NCCA frequencies”.
Regarding `O[C@@H](CS)[C@@H](O)CS` [DTT], in the assay on ER stress pathways, the NCCA levels result is “elevated NCCAs were observed” and the “ER stress pathway activation” value was “indeed active”.
For the compound `CC(C)C[C@@H](C=O)NC(=O)[C@H](CC(C)C)NC(=O)[C@H](CC(C)C)NC(=O)OCc1ccccc1` [MG132] (Cbz-Leu-Leu-Leu-aldehyde), in the assay on MDA-MB-231, the NCCAs entry is recorded as “showed an increase in NCCAs”. The NCCA frequencies entry in the assay on BT549 is on record as “failed to generate increased NCCA frequencies”.
`CC(C)c1ccccc1Cc1cc(C(=O)Nc2ccc(S(=O)(=O)c3ccccc3C(C)(C)C)cc2)c(O)c(O)c1O` [TW-37]: the “formation of new karyotypes” value in assay [1] (after a few weeks of culture) is reported as “new stable karyotypes were detected”. Moreover, in assay [1] (treatment conditions resulting in 50% cell death, surviving cells of two cell lines), the “frequencies of NCCAs” value was “increased”.
In the assay on HCT116 p53−/− cells [2] (72 h), `C[C@@]1(CO)[C@H](O)CC[C@@]2(C)[C@H]1CC[C@H]1C[C@@H]3C[C@@]12CC[C@]3(O)CO` [aphidicolin] yielded a mitotic fraction of 3.2%. Further, in the assay with HCT116 p53−/− cells [2] (96 h), the chromosome breaks result was “evident in the majority of chromosome spreads” and the mitotic fraction is given as 5.4%. Moreover, the cells died in the assay on HCT116 p53−/− cells [3] is given as 40%.
Consider `N.N.[Cl][Pt][Cl]` [cisplatin], for which the “karyotypes of drug resistant clones” value in [4] is listed as “drastically different karyotypes”.
As to `COc1cccc2c1C(=O)c1c(O)c3c(c(O)c1C2=O)C[C@@](O)(C(=O)CO)C[C@@H]3O[C@H]1C[C@H](N)[C@H](O)[C@H](C)O1` [doxorubicin], in the assay on cell population, the “level of NCCAs” value is “a high level of NCCAs was quickly detected”. Besides, the “phosphorylated H3 staining” value in the assay on HCT116 14-3-3−/− cells is “only a very small fraction of cells show any positive signal”. Also, the chromosome fragmentation result in the assay on HCT116 14-3-3−/− cells (conventional cytogenetic protocols) is recorded as “chromosome fragmentation was not evident”. Further, the “induction of chromosome fragmentation” value in the assay with mitotic cells is “can induce chromosome fragmentation”. The “chromosome fragmentation in interphase cells” value in the assay with mitotic cells (interphase cells, doxorubicin and colcemid preceded by a double thymidine block, up to 24 h) is “no chromosome fragmentation was observed”. In addition, the “mitotic cells showing a degree of chromosome fragmentation” value with mitotic cells (mitotic shake-off cells arrested with colcemid, concurrent doxorubicin, within 12 h) was ~100%.
`CN(Cc1cnc2nc(N)nc(N)c2n1)c1ccc(C(=O)N[C@@H](CCC(=O)O)C(=O)O)cc1` [methotrexate]: in the assay on mitotic cells, the “induction of chromosome fragmentation” value is “can induce chromosome fragmentation”.
Consider `COC(=O)C[C@H](NC(=O)[C@H](C)NC(=O)[C@@H](NC(=O)OCc1ccccc1)C(C)C)C(=O)CF` [z-vad-fmk] (Cbz-Val-Ala-Asp(OMe)-CH2F), for which the “chromosome fragmentation frequency upon caspase inhibition” value in the assay with HCT116 cells was “not significantly altered”. Further, at caspase-3, the caspase-3 reactivity entry is reported as “largely inhibited”.
With tharpsigargin, in the assay with ER stress pathways, the NCCA levels result is on record as “elevated NCCAs were observed” and the “ER stress pathway activation” value was “indeed active”.
In the same order, the values of tunicamycin are “elevated NCCAs were observed” and “indeed active”.
